In US20080200372A1, “Glycosaminoglycan Peptides Derived From Connective Tissues And Use Thereof In The Prevention Of Arthritis And Other Degenerative Medical Conditions” (Institute of Nutraceutical Research Pty Ltd., priority 2004, published 2008):
“Also recorded” adds a separate entry of the source. Blank lines part the entries; values can stand above or below the molecule they belong to.

Columns and labels:
[1] = tested on: rat collagen induced arthritis (CIA) model; assay: Rat type II collagen induced arthritis (CIA) model, prophylactic protocol (15 days oral administration); type: in vivo; conditions: 200 mg/kg oral, 15 days administration, measured on day 15 (FIG. 8, FIG. 14)
Description: According to the prophylactic protocol of evaluation, the pharmaceutical composition of the present invention is administered to the animals from the time the animals are injected with arthritogen and for a number of days thereafter. In one example the pharmaceutical composition is administered to the animal for between 1 and 15 days after administration of the arthritogen. In alternate examples of the invention the pharmaceutical composition is administered for example for 7, 10, 15 or 20 days after administration of the arthritogen. The scope of the present invention extends to the administration of the pharmaceutical composition for an appropriate period of time after administration of the arthritogen that is suitable to effect prophylaxis to prevent the onset of symptoms of a harmful immune response to the arthritogen. […] The body weight of animals, together with their tail and paw swelling, were determined every 48 h, the latter parameters being determined using callipers and results expressed in millimetres (mm). Arthritis development was also assessed from day 11 onwards using a macroscopic scoring scale whereby rear paw, fore paw, and tail swelling were scored on a scale 0-4+. […]

[2] = tested on: rat collagen induced arthritis (CIA) model; assay: Rat type II collagen induced arthritis (CIA) model, toleragenic protocol (7 days oral pre-administration); type: in vivo; conditions: for activity as toleragens in the rat CIA model: comparative study with CaP, FIG. 8
Description: In another example of the present invention, the tolerogenic protocol of evaluation of the pharmaceutical of the invention comprises administering the pharmaceutical composition to the animals prior to inducing arthritis by injection of the arthritogen. The pharmaceutical composition is administered for a period of time suitable to tolerize the animal. In one example the pharmaceutical composition is administered for 1 to 21 days prior to administration of the arthritogen. In one preferred example the pharmaceutical composition is administered for 1, 7, 10, 15 or 20 days prior to administration of the arthritogen. According to the toleragenic protocol for studying the activity of the pharmaceutical of the present invention, it is preferred that administration of the pharmaceutical composition ceases at the time that the arthritogen is administered.
Female Wistar rats (160-180 gm) were inoculated with 250 μg of the arthritogen, bovine tracheal collagen type-II dissolved in dilute acetic acid (0.01M) and applied as 6 divided injections into their tail base on day 0. The body weight of animals, together with their tail and paw swelling, were determined every 48 h, the latter parameters being determined using callipers and results expressed in millimetres (mm). Arthritis development was also assessed from day 11 onwards using a macroscopic scoring scale whereby rear paw, fore paw, and tail swelling were scored on a scale 0-4+. An overall arthritis score (0-4+) was also determined on the basis of overall inflammation and other signs of disease activity, e.g. piloerection, diminished mobility, poor grooming etc as described previously [Creamer M. et al. Collagen-induced arthritis in rats. J Immunology, 149:1045-1053, 1992]. […]

[3] = tested on: type II collagen (CII) arthritis (CIA) in mice; conditions: cited from earlier work
citrated human plasma = assay: In vitro anticoagulant activity, activated partial thromboplastin time (aPTT); type: biochemical
Description: Pharmaceutical quality chondroitin sulfate were obtained from Bioiberica, Barcelona, Spain (ChS#1) and Sigma Chemical Co St Louis, Mo., USA (ChS#2). Calcium peptacan (CaP), and GAG-peptide (GAG-P), prepared as described herein, were evaluated for their anticoagulant activities using a commercial aPTT reagent (Actin FSL activated PTT reagent, Dade-Behring Margurg GmbH, Marburg, Germany) and a standard human plasma: (Ci-Trol Coagulation Control level 2, Dade-Behring Margurg GmbH, Marburg, Germany) according to the protocol supplied by the manufacturer. Stock solutions of the test preparations were dissolved in 0.025M calcium chloride and serially diluted in this buffer to correspond to the concentrations of 0-1.25 mg/mL. The aPTT times were determined by the addition of these solutions to a mixture of the Actin FSL reagent and control plasma held at 37° C. in cuvettes of a fibrin-timer (Dade-Behring Margurg GmbH, Marburg, Germany). This instrument quantitated the time in seconds for clot formation. All samples were assayed in duplicate and the mean values plotted against concentration using a semi-log scale.

[4] = tested on: haemorrhagic stomach lesions produced by ibuprofen in rats with CIA; assay: Gastroprotective activity in the rat CIA model against haemorrhagic stomach lesions produced by ibuprofen; type: in vivo
Description: FIG. 18 provides a table (Table 1) of the results for testing gastroprotective activity of Calcium Peptacan in the Rat CIA Arthritis Model against haemorrhagic stomach lesions produced by oral administration of the non-steroidal anti-inflammatory drug, Ibufrofen (50 mg/kg) on day 20.
As discussed earlier the chronic use of NSAIDs by OA and RA patients is frequently associated with serious side effects in the gastrointestinal tract particularly with respect the induction of gastric bleeding. This effect was confirmed in an animal model by administering 50 mg/kg of the NSAID, ibuprofen, to rats in which CIA had been ongoing for 20 days [see FIG. 18—Table 1].

Molecule: Cl.N[C@H]1C(O)O[C@H](CO)[C@@H](O)[C@@H]1O (stereo partly drawn) [GmHCl, Glucosamine Hydrochloride]
- prophylactic effects on arthritis development (rear paw swelling, front paw inflammation, arthritis scores) [1]: CaP was the only preparation that demonstrated anti-arthritic activity
- activity as toleragens in the rat CIA model [2]: inactive as toleragens

Molecule: chondroitin sulfate [ChS]
- delayed-type hypersensitivity (DTH) reaction ([3]; at any dose (100, 300, 1000 mg/kg), mice): no effect
- severity of the disease (hind paw oedema, synovitis, destruction of the articular cartilage) ([3]; only at the highest dose, 1000 mg/kg oral, mice): significantly reduced
- incidence of arthritis ([3]; oral doses of 100, 300 and 1000 mg/kg for 14 days prior to inducing CIA in mice): failed to prevent the incidence of arthritis
- toleragenic effects on arthritis development (rear paw swelling, front paw inflammation, arthritis scores) ([2]; 20 mg/kg oral, 7 days pre-administration, measured on day 15 (FIG. 7, FIG. 9)): inactive as a toleragen; also recorded: no activity
- concentration range over which anti-coagulant activity was exhibited (citrated human plasma; aPTT (FIG. 17)): 0.4 to 1.2 mg/mL

- induction of gastric bleeding ([4]; 50 mg/kg to rats in which CIA had been ongoing for 20 days): confirmed
Molecule: CC(C)Cc1ccc(C(C)C(=O)O)cc1 (stereo not drawn) [ibuprofen]

Molecule: O=C(O)CC([S-])C(=O)O.[Au+] (stereo not drawn) [aurothiomalate]
- gastro protective effectiveness ([4]; ibuprofen 50 mg/kg on day 20 of CIA, dose of test substance not given): only marginally effective

Molecule: chondroitin sulfate [ChS #1]
- anticoagulant effect (aPTT) (citrated human plasma; citrated human plasma, 0-1.25 mg/mL (FIG. 17)): strongest anticoagulant effect

Molecule: N[C@H]1C(O)O[C@H](CO)[C@@H](O)[C@@H]1O.O=S(=O)(O)O (stereo partly drawn) [GmSO4, Glucosamine Sulfate]
- prophylactic effects on arthritis development (rear paw swelling, front paw inflammation, arthritis scores) [1]: CaP was the only preparation that demonstrated anti-arthritic activity
- activity as toleragens in the rat CIA model [2]: inactive as toleragens
